According to PubChem BioAssay (NCI):
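96-well plates; 48 h exposure; 5 concentrations. Endpoints by linear interpolation between flanking doses. Not reached: highest tested concentration assigned. GI50: concentration for 50% inhibition of growth. Definition used: TGI = concentration required for complete inhibition of growth.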

What was measured:
Assay in all cases: inhibition of tumour cell growth, NCI panel, 48 h
[1] = tested on: SNB-19 CNS
[2] = tested on: NCI-H23 lung
[3] = tested on: RPMI-8226 leukemia
[4] = tested on: NCI-H460 lung
[5] = tested on: RXF 393 renal
[6] = tested on: U251 CNS
[7] = tested on: SW-620 colon
[8] = tested on: MALME-3M melanoma
[9] = tested on: SF-268 CNS
[10] = tested on: MDA-MB-231 breast
[11] = tested on: SK-MEL-5 melanoma
[12] = tested on: SF-539 CNS
[13] = tested on: HOP-92 NSCLC
[14] = tested on: TK-10 renal
[15] = tested on: T-47D breast
[16] = tested on: SNB-75 CNS
[17] = tested on: DU-145 prostate
[18] = tested on: HCT-116 colon
[19] = tested on: A549 NSCLC
[20] = tested on: HL-60(TB) leukemia
[21] = tested on: SK-MEL-2 melanoma
[22] = tested on: CCRF-CEM leukemia
[23] = tested on: KM12 colon
[24] = tested on: SN12C renal
[25] = tested on: MDA-MB-435
[26] = tested on: UACC-257 melanoma
[27] = tested on: OVCAR-5 ovarian
[28] = tested on: SK-OV-3 ovarian
[29] = tested on: PC-3 prostate

In the case of `O=C(c1ccco1)c1nc2cc(F)ccc2[n+]([O-])c1C(F)(F)F`, the GI50 [1] is reported as 47.4 µM, the TGI [1] is reported as > 100 µM and the GI50 [2] is reported as 19.1 µM. The TGI [2] was 42.7 µM, the GI50 [3] was 35.8 µM and the TGI [3] was > 100 µM. The GI50 [4] was 41.8 µM, the TGI [4] was > 100 µM and the GI50 [5] was 19.2 µM. For the same compound, the TGI [5] was 52.7 µM, the GI50 [6] was 35.5 µM and the TGI [6] was > 100 µM. For the same compound, the GI50 [7] was > 100 µM, the TGI [7] was > 100 µM and the GI50 [8] was 17.4 µM. The TGI [8] was 33.9 µM, the GI50 [9] was 39.2 µM and the TGI [9] was > 100 µM. For the same compound, the GI50 [10] was 22.6 µM, the TGI [10] was 60.5 µM and the GI50 [11] was > 100 µM. For the same compound, the TGI [11] was > 100 µM, the GI50 [12] was > 100 µM and the TGI [12] was > 100 µM. For the same compound, the GI50 [13] was 22.6 µM, the TGI [13] was 58.7 µM and the GI50 [14] was 85.3 µM. For the same compound, the TGI [14] was > 100 µM, the GI50 [15] was 30.6 µM and the TGI [15] was > 100 µM. The GI50 [16] was 24.5 µM, the TGI [16] was 86.6 µM and the GI50 [17] was 38.8 µM. For the same compound, the TGI [17] was > 100 µM, the GI50 [18] was 34 µM and the TGI [18] was > 100 µM. The GI50 [19] was 34.6 µM, the TGI [19] was > 100 µM and the GI50 [20] was 18.4 µM. The TGI [20] was 49.2 µM, the GI50 [21] was 20.8 µM and the TGI [21] was 50.3 µM. For the same compound, the GI50 [22] was 29.9 µM, the TGI [22] was > 100 µM and the GI50 [23] was 57 µM. The TGI [23] was > 100 µM, the GI50 [24] was 44.4 µM and the TGI [24] was > 100 µM. The GI50 [25] was 19.2 µM, the TGI [25] was 44 µM and the GI50 [26] was 22.5 µM. For the same compound, the TGI [26] was 67.3 µM, the GI50 [27] was 26.7 µM and the TGI [27] was 90.6 µM. The GI50 [28] was 35.3 µM, the TGI [28] was > 100 µM and the GI50 [29] was 35.3 µM. For the same compound, the TGI [29] was > 100 µM.
